Experimental data as given in patent publication US20230081426A1, “COMPOUNDS AND METHODS FOR KRAS MODULATION AND INDICATIONS THEREFOR” (Plexxikon Inc., priority 2020, published 2023).

Legend:
[1] = biological target: T1, G12C-mutant human KRAS (amino acid residues 1-188) (Homo sapiens, UniProt P01116, G12C); assay: KRAS Binding Disruption Assay (AlphaScreen; biotinylated KRpep-2d analogue or RAF1-RBD), G12C; conditions: geometric mean, read-out: KRAS GMean IC50 (uM) MUTATION: G12C
T1 construct: G12D or G12C-mutant human KRAS (amino acid residues 1-188) with FLAG tag; made in house; host or cells: E. coli
In short: (§1)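 Compounds are titrated against 5-20 nM mutant KRAS and 5-20 nM of either a biotinylated KRpep-2d analogue or RAF1-RBD, incubated 1 h at 25° C. Disruption is detected as reduced Alpha signal after 1 h with donor and acceptor beads at 10 μg/mL.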

[2] = biological target: T2, G12D-mutant human KRAS (amino acid residues 1-188) (Homo sapiens, UniProt P01116, G12D); assay: KRAS Binding Disruption Assay (AlphaScreen; biotinylated KRpep-2d analogue or RAF1-RBD), G12D; conditions: KRAS G12D; geometric mean; read-out: KRAS GMean IC50 (uM) MUTATION: G12D
T2 construct: G12D or G12C-mutant human KRAS (amino acid residues 1-188) with FLAG tag; made in house; host or cells: E. coli
In short: as §1

T1 sequence (P01116 1-188 isoform P01116-2 G12C): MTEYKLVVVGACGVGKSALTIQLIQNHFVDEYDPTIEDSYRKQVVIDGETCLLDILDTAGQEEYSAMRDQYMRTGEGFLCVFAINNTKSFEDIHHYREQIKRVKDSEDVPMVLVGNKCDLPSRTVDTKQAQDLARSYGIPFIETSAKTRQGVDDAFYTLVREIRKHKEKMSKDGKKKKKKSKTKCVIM
T2 sequence (P01116 1-188 isoform P01116-2 G12D): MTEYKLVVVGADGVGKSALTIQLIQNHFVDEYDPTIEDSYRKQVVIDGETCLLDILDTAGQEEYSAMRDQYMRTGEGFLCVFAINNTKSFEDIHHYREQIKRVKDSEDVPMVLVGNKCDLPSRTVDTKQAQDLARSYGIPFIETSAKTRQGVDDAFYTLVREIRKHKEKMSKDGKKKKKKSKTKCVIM

Compound | IC50 [1] [µM] | IC50 [2] [µM]
CCc1cccc2[nH]cc(-c3c(F)cc4c(N5C[C@H]6CC[C@@H](C5)N6)nc(OCC56CCCN5CCC6)nc4c3F)c12 [P-0731, 4-((1R,5S)-3,8-diazabicyclo[3.2.1]octan-3-yl)-7-(4-ethyl-1H-indol-3-yl)-6,8-difluoro-2-((tetrahydro-1H-pyrrolizin-7a(5H)-yl)methoxy)quinazoline] | 0.0001 to 10 | 0.0001 to 10
NC(=O)COc1nc(N2C[C@H]3CC[C@@H](C2)N3)c2ccc(-c3cc(O)cc4ccccc34)c(F)c2n1 [P-0732, 2-((4-((1R,5S)-3,8-diazabicyclo[3.2.1]octan-3-yl)-8-fluoro-7-(3-hydroxynaphthalen-1-yl)quinazolin-2-yl)oxy)acetamide] | 10 to 100 | 0.0001 to 10
CNC(=O)COc1nc(N2C[C@H]3CC[C@@H](C2)N3)c2ccc(-c3cc(O)cc4ccccc34)c(F)c2n1 [P-0733, 2-((4-((1R,5S)-3,8-diazabicyclo[3.2.1]octan-3-yl)-8-fluoro-7-(3-hydroxynaphthalen-1-yl)quinazolin-2-yl)oxy)-N-methylacetamide] | 10 to 100 | 0.0001 to 10
Oc1cc(-c2ccc3c(N4C[C@H]5CC[C@@H](C4)N5)nc(OCC4(O)CC4)nc3c2F)c2ccccc2c1 [P-0734, 4-(4-((1R,5S)-3,8-diazabicyclo[3.2.1]octan-3-yl)-8-fluoro-2-((1-hydroxycyclopropyl)methoxy)quinazo-lin-7-yl)naphthalen-2-ol] | 10 to 100 | 0.0001 to 10
CC(C)(COc1nc(N2C[C@H]3CC[C@@H](C2)N3)c2ccc(-c3cc(O)cc4ccccc34)c(F)c2n1)NC(=O)OCc1ccccc1 [P-0735, benzyl (1-((4-((1R,5S)-3,8-diazabicyclo[3.2.1]octan-3-yl)-8-fluoro-7-(3-hydroxynaphthalen-1-yl)quinazolin-2-yl)oxy)-2-methylpropan-2-yl)carbamate] | 100 to 1000 | 0.0001 to 10
CN(C)C(C)(C)COc1nc(N2C[C@H]3CC[C@@H](C2)N3)c2ccc(-c3cc(O)cc4ccccc34)c(F)c2n1 [P-0736, 4-(4-((1R,5S)-3,8-diazabicyclo[3.2.1]octan-3-yl)-2-(2-(dimethylamino)-2-methylpropoxy)-8-fluoroquinazolin-7-yl)naphthalen-2-ol] | 10 to 100 | 0.0001 to 10
Fc1cc2c(N3C[C@H]4CC[C@@H](C3)N4)nc(OCC34CCCN3CCC4)nc2c(F)c1-c1c[nH]c2cccc(C(F)(F)F)c12 [P-0737, 4-((1R,5S)-3,8-diazabicyclo[3.2.1]octan-3-yl)-6,8-difluoro-2-((tetrahydro-1H-pyrrolizin-7a(5H)-yl)methoxy)-7-(4-(trifluoromethyl)-1H-indol-3-yl)quinazoline] | 0.0001 to 10 | 0.0001 to 10
Oc1cc(-c2ccc3c(N4C[C@H]5CC[C@@H](C4)N5)nc(OCC4CCC(F)(F)C4)nc3c2F)c2ccccc2c1 (stereo partly drawn) [P-0738, 4-(4-((1R,5S)-3,8-diazabicyclo[3.2.1]octan-3-yl)-2-((3,3-difluorocyclopentyl)methoxy)-8-fluoroquinazolin-7-yl)naphthalen-2-ol] | 10 to 100 | 0.0001 to 10
Oc1cc(-c2ccc3c(N4C[C@H]5CC[C@@H](C4)N5)nc(OCC4CCCC4(F)F)nc3c2F)c2ccccc2c1 (stereo partly drawn) [P-0739, 4-(4-((1R,5S)-3,8-diazabicyclo[3.2.1]octan-3-yl)-2-((2,2-difluorocyclopentyl)methoxy)-8-fluoroquinazolin-7-yl)naphthalen-2-ol] | 10 to 100 | 0.0001 to 10
Oc1cc(-c2ccc3c(N4C[C@H]5CC[C@@H](C4)N5)nc(OCC4CC(F)(F)C4(F)F)nc3c2F)c2ccccc2c1 (stereo partly drawn) [P-0740, 4-(4-((1R,5S)-3,8-diazabicyclo[3.2.1]octan-3-yl)-8-fluoro-2-((2,2,3,3-tetrafluorocyclobutyl)methoxy)quinaz-olin-7-yl)naphthalen-2-ol] | 10 to 100 | 0.0001 to 10
Oc1cc(-c2ccc3c(N4C[C@H]5CC[C@@H](C4)N5)nc(OCC4CC4(F)F)nc3c2F)c2ccccc2c1 (stereo partly drawn) [P-0741, 4-(4-((1R,5S)-3,8-diazabicyclo[3.2.1]octan-3-yl)-2-((2,2-difluorocyclopropyl)methoxy)-8-fluoroquinazolin-7-yl)naphthalen-2-ol] | 10 to 100 | 0.0001 to 10
CN1C(=O)CCC1COc1nc(N2C[C@H]3CC[C@@H](C2)N3)c2ccc(-c3cc(O)cc4ccccc34)c(F)c2n1 (stereo partly drawn) [P-0742, 5-(((4-((1R,5S)-3,8-diazabicyclo[3.2.1]octan-3-yl)-8-fluoro-7-(3-hydroxynaphthalen-1-yl)quinazolin-2-yl)oxy)methyl)-1-methylpyrrolidin-2-one] | 10 to 100 | 0.0001 to 10
O=C(O)CCOc1nc(N2C[C@H]3CC[C@@H](C2)N3)c2ccc(-c3cc(O)cc4ccccc34)c(F)c2n1 [P-0743, 3-((4-((1R,5S)-3,8-diazabicyclo[3.2.1]octan-3-yl)-8-fluoro-7-(3-hydroxynaphthalen-1-yl)quinazolin-2-yl)oxy)propanoic acid] | 10 to 100 | 0.0001 to 10
CC(C)(C)OC(=O)COc1nc(N2C[C@H]3CC[C@@H](C2)N3)c2ccc(-c3cc(O)cc4ccccc34)c(F)c2n1 [P-0744, tert-butyl 2-((4-((1R,5S)-3,8-diazabicyclo[3.2.1]octan-3-yl)-8-fluoro-7-(3-hydroxynaphthalen-1-yl)quinazolin-2-yl)oxy)acetate] | 10 to 100 | 0.0001 to 10
O=C(O)COc1nc(N2C[C@H]3CC[C@@H](C2)N3)c2ccc(-c3cc(O)cc4ccccc34)c(F)c2n1 [P-0745, 2-((4-((1R,5S)-3,8-diazabicyclo[3.2.1]octan-3-yl)-8-fluoro-7-(3-hydroxynaphthalen-1-yl)quinazolin-2-yl)oxy)acetic acid] | 10 to 100 | 0.0001 to 10
Fc1cc2c(N3C[C@H]4CC[C@@H](C3)N4)nc(OCC34CCCN3CCC4)nc2c(F)c1-c1c[nH]c2c(F)ccc(F)c12 [P-0746, 4-((1R,5S)-3,8-diazabicyclo[3.2.1]octan-3-yl)-7-(4,7-difluoro-1H-indol-3-yl)-6,8-difluoro-2-((tetrahydro-1H-pyrrolizin-7a(5H)-yl)methoxy)quinazoline] | 10 to 100 | 0.0001 to 10
Fc1cc(F)c2[nH]cc(-c3c(F)cc4c(N5C[C@H]6CC[C@@H](C5)N6)nc(OCC56CCCN5CCC6)nc4c3F)c2c1 [P-0747, 4-((1R,5S)-3,8-diazabicyclo[3.2.1]octan-3-yl)-7-(5,7-difluoro-1H-indol-3-yl)-6,8-difluoro-2-((tetrahydro-1H-pyrrolizin-7a(5H)-yl)methoxy)quinazoline] | 10 to 100 | 0.0001 to 10
CC(F)(F)COc1nc(N2C[C@H]3CC[C@@H](C2)N3)c2ccc(-c3cc(O)cc4ccccc34)c(F)c2n1 [P-0748, 4-(4-((1R,5S)-3,8-diazabicyclo[3.2.1]octan-3-yl)-2-(2,2-difluoropropoxy)-8-fluoroquinazolin-7-yl)naphthalen-2-ol] | 10 to 100 | 0.0001 to 10
Oc1cc(-c2ccc3c(N4C[C@H]5CC[C@@H](C4)N5)nc(OCC(F)F)nc3c2F)c2ccccc2c1 [P-0749, 4-(4-((1R,5S)-3,8-diazabicyclo[3.2.1]octan-3-yl)-2-(2,2-difluoroethoxy)-8-fluoroquinazolin-7-yl)naphthalen-2-ol] | 10 to 100 | 0.0001 to 10
Oc1cc(-c2ccc3c(N4C[C@H]5CC[C@@H](C4)N5)nc(OCC4CCC4)nc3c2F)c2ccccc2c1 [P-0750, 4-(4-((1R,5S)-3,8-diazabicyclo[3.2.1]octan-3-yl)-2-(cyclobutylmethoxy)-8-fluoroquinazolin-7-yl)naphthalen-2-ol] | 10 to 100 | 0.0001 to 10
N#CC1CC(COc2nc(N3C[C@H]4CC[C@@H](C3)N4)c3ccc(-c4cc(O)cc5ccccc45)c(F)c3n2)C1 (stereo partly drawn) [P-0751, 3-(((4-((1R,5S)-3,8-diazabicyclo[3.2.1]octan-3-yl)-8-fluoro-7-(3-hydroxynaphthalen-1-yl)quinazolin-2-yl)oxy)methyl)cyclobutane-1-carbonitrile] | 10 to 100 | 0.0001 to 10
Oc1cc(-c2ccc3c(N4C[C@H]5CC[C@@H](C4)N5)nc(OCC4CCC(F)(F)CC4)nc3c2F)c2ccccc2c1 [P-0752, 4-(4-((1R,5S)-3,8-diazabicyclo[3.2.1]octan-3-yl)-2-((4,4-difluorocyclohexyl)methoxy)-8-fluoroquinazolin-7-yl)naphthalen-2-ol] | 10 to 100 | 0.0001 to 10
CN(C)CCOc1nc(N2C[C@H]3CC[C@@H](C2)N3)c2ccc(-c3cc(O)cc4ccccc34)c(F)c2n1 [P-0753, 4-(4-((1R,5S)-3,8-diazabicyclo[3.2.1]octan-3-yl)-2-(2-(dimethylamino)ethoxy)-8-fluoroquinazolin-7-yl)naphthalen-2-ol] | 0.0001 to 10 | 0.0001 to 10
CNCCc1nc(N2C[C@H]3CC[C@@H](C2)N3)c2ccc(-c3cc(O)cc4ccccc34)c(F)c2n1 [P-0754, 4-(4-((1R,5S)-3,8-diazabicyclo[3.2.1]octan-3-yl)-8-fluoro-2-(2-(methylamino)ethyl)quinazolin-7-yl)naphthalen-2-ol] | 10 to 100 | 0.0001 to 10
CC(CCBr)Oc1nc(N2C[C@H]3CC[C@@H](C2)N3)c2ccc(-c3cc(O)cc4ccccc34)c(F)c2n1 (stereo partly drawn) [P-0755, 4-(4-((1R,5S)-3,8-diazabicyclo[3.2.1]octan-3-yl)-2-((4-bromobutan-2-yl)oxy)-8-fluoroquinazolin-7-yl)naphthalen-2-ol] | 10 to 100 | 0.0001 to 10
CN1CCC[C@H]1COc1nc(N2C[C@H]3CC[C@@H](C2)N3)c2cc(F)c(-c3c[nH]c4ccc(Cl)nc34)c(F)c2n1 [P-0756, 4-((1R,5S)-3,8-diazabicyclo[3.2.1]octan-3-yl)-7-(5-chloro-1H-pyrrolo[3,2-b]pyridin-3-yl)-6,8-difluoro-2-(((S)-1-methylpyrrolidin-2-yl)methoxy)quinazoline] | 100 to 1000 | 0.0001 to 10
